Laboratory results reported in US7902354B2, “Lapachone compounds and methods of use thereof” (ArQule, Inc., priority 2006, dated 2011).

Assays:
Assay type in all cases: cell-based
[1] = system: NCM-460 normal colon epithelial cells; test: MTS cell viability assay, NCM-460 normal colon epithelial cells; conditions: for IC50: Homo sapiens, NCM460, NCM-460, 4 h compound incubation, MTS, read-out: IC50 Values, Normal Cells, Colon NCM-460; for Fold Selectivity (NCM-460/DLD1): ratio of IC50 NCM-460 / DLD1
[2] = system: DU-145 human prostate carcinoma cells; test: MTS cell viability assay, DU-145 human prostate carcinoma cells; conditions: DU-145, 4 h compound incubation, MTS, read-out: IC50 Values, Cancerous Cells, Prostate DU-145
[3] = system: A549 human lung carcinoma cells; test: MTS cell viability assay, A549 human lung carcinoma cells; conditions: A549, 4 h compound incubation, MTS, read-out: IC50 Values, Cancerous Cells, Lung A549
[4] = system: DLD-1 human colon carcinoma cells; test: MTS cell viability assay, DLD-1 human colon carcinoma cells; conditions: DLD-1, 4 h compound incubation, MTS, read-out: IC50 Values, Cancerous Cells, Colon DLD-1
[5] = system: PACA-2 human pancreatic carcinoma cells; test: MTS cell viability assay, PACA-2 human pancreatic carcinoma cells; conditions: PACA-2, 4 h compound incubation, MTS, read-out: IC50 Values, Cancerous Cells, Pancreas PACA-2
[6] = system: K-562 human leukemia cells; test: MTS cell viability assay, K-562 human leukemia cells; conditions: K562, K-562, 4 h compound incubation, MTS, read-out: IC50 Values, Cancerous Cells, Leukemia K-562

SMILES | IC50 [1] [µM] | Fold Selectivity (NCM-460/DLD1) [1] | IC50 [2] [µM] | IC50 [3] [µM] | IC50 [4] [µM] | IC50 [5] [µM] | IC50 [6] [µM]
O=C1C(=O)c2ccccc2C2=C1SCC1(CCN(CCOc3ccc(Cl)cc3)CC1)O2 [Compound 145, 1′-[2-(4-chlorophenoxy)ethyl]spiro[naphtho[1,2-b][1,4]oxathiine-2,4′-piperidine]-5,6-dione] | 21 | 5.5 | 4.03 | 5.55 | 3.8 | 2.74 | 7.87
Cc1ccc(CN2CCC3(CC2)CSC2=C(O3)c3ccccc3C(=O)C2=O)cc1F [Compound 146, 1′-(3-fluoro-4-methylbenzyl)spiro[naphtho[1,2-b][1,4]oxathiine-2,4′-piperidine]-5,6-dione] | 26.4 | 5.8 | 5.77 | 38.2 | 4.53 | 4.1 | 12.1
CC(C)(C)c1ccc(OCC(O)CN2CCC3(CC2)CSC2=C(O3)c3ccccc3C(=O)C2=O)cc1 (stereo not drawn) [Compound 157, 1′-[3-(4-tert-butylphenoxy)-2-hydroxypropyl]spiro[naphtho[1,2-b][1,4]oxathiine-2,4′-piperidine]-5,6-dione] | 28.2 | 7.8 | 2.26 | 8.03 | 3.63 | 2.08 | 7.6
O=C1C(=O)c2ccccc2C2=C1SCC1(CCN(CC(O)COc3ccccc3)CC1)O2 (stereo not drawn) [Compound 158, 1′-(2-hydroxy-3-phenoxypropyl)spiro[naphtho[1,2-b][1,4]oxathiine-2,4′-piperidine]-5,6-dione] | 4.91 | 3.3 | 1.71 | 5.6 | 1.48 | 1.32 | 1.44
C=CC(C)(O)CN1CCC2(CC1)CSC1=C(O2)c2ccccc2C(=O)C1=O (stereo not drawn) [Compound 159, 1′-(2-hydroxy-2-methylbut-3-en-1-yl)spiro[naphtho[1,2-b][1,4]oxathiine-2,4′-piperidine]-5,6-dione] | 10.2 | 2.3 | 5.03 | 14.3 | 4.47 | 4.03 | 4.13
O=C1C(=O)c2ccccc2C2=C1SCC1(CCN(CC(O)CC(F)(F)F)CC1)O2 (stereo not drawn) [Compound 160, 1′-(4,4,4-trifluoro-2-hydroxybutyl)spiro[naphtho[1,2-b][1,4]oxathiine-2,4′-piperidine]-5,6-dione] | 5.56 | 3.3 | 3.92 | 6.72 | 1.69 | 1.55 | 1.53
CCCCC(O)CN1CCC2(CC1)CSC1=C(O2)c2ccccc2C(=O)C1=O (stereo not drawn) [Compound 162, 1′-(2-hydroxyhexyl)spiro[naphtho[2-b][1,4]oxathiine-2,4′-piperidine]-5,6-dione] | 2.8 | 2.1 | 2.77 | 6.95 | 1.36 | 1.45 | 1.5
O=C1C(=O)c2ccccc2C2=C1SCC1(CCN(CC(O)COc3ccc(F)cc3)CC1)O2 (stereo not drawn) [Compound 164, 1′-[3-(4-fluorophenoxy)-2-hydroxypropyl]spiro[naphtho[1,2-b][1,4]oxathiine-2,4′-piperidine]-5,6-dione] | 9.74 | 6.4 | 2.88 | 9.02 | 1.52 | 1.42 | 3.12
O=C1C(=O)c2ccccc2C2=C1SCC1(CCN(CC(O)COCc3ccco3)CC1)O2 (stereo not drawn) [Compound 165, 1′-[3-(2-furylmethoxy)-2-hydroxypropyl]spiro[naphtho[2-b][1,4]oxathiine-2,4′-piperidine]-5,6-dione] | 4.71 | 2.5 | 3.08 | 6.73 | 1.92 | 1.44 | 2.31
O=C1C(=O)c2ccccc2C2=C1SCC1(CCN(CC(O)CN3CCOCC3)CC1)O2 (stereo not drawn) [Compound 166, 1′-(2-hydroxy-3-morpholin-4-ylpropyl)spiro[naphtho[1,2-b][1,4]oxathiine-2,4′-piperidine]-5,6-dione] | 8.69 | 2.3 | 4.16 | 13.6 | 3.7 | 1.47 | 2.26
O=C1C(=O)c2ccccc2C2=C1SCC1(CCN(CC(O)c3ccccc3)CC1)O2 (stereo not drawn) [Compound 167, 1′-(2-hydroxy-2-phenylethyl)spiro[naphtho[1,2-b][1,4]oxathiine-2,4′-piperidine]-5,6-dione] | 3.68 | 2.7 | 2.76 | 7.56 | 1.35 | 1.26 | 1.53
CCc1ccc(OCC(O)CN2CCC3(CC2)CSC2=C(O3)c3ccccc3C(=O)C2=O)cc1 (stereo not drawn) [Compound 170, 1′-[3-(4-ethylphenoxy)-2-hydroxypropyl]spiro[naphtho[1,2-b][1,4]oxathiine-2,4′-piperidine]-5,6-dione] | 14 | 9.4 | 1.42 | 4.69 | 1.49 | 1.37 | 5.31
O=C1C(=O)c2ccccc2C2=C1SCC1(CCN(CC(O)COCc3ccccc3)CC1)O2 (stereo not drawn) [Compound 171, 1′-[3-(benzyloxy)-2-hydroxypropyl]spiro[naphtho[12-b][1,4]oxathiine-2,4′-piperidine]-5,6-dione] | 9.69 | 7.2 | 3.22 | 6.55 | 1.34 | 1.46 | 3.6
O=C1C(=O)c2ccccc2C2=C1SCC1(CCN(CC(O)COc3ccccc3Cl)CC1)O2 (stereo not drawn) [Compound 172, 1′-[3-(2-chlorophenoxy)-2-hydroxypropyl]spiro[naphtho[1,2-b][1,4]oxathiine-2,4′-piperidine]-5,6-dione] | 5.53 | 4.1 | 1.55 | 6.16 | 1.36 | 1.09 | 1.48
Cc1ccccc1OCC(O)CN1CCC2(CC1)CSC1=C(O2)c2ccccc2C(=O)C1=O (stereo not drawn) [Compound 173, 1′-[2-hydroxy-3-(2-methylphenoxy)propyl]spiro[naphtho[1,2-b][1,4]oxathiine-2,4′-piperidine]-5,6-dione] | 10.3 | 6.9 | 2.92 | 7 | 1.49 | 1.42 | 4.1
CC(C)COCC(O)CN1CCC2(CC1)CSC1=C(O2)c2ccccc2C(=O)C1=O (stereo not drawn) [Compound 174, 1′-(2-hydroxy-3-isobutoxypropyl)spiro[naphtho[1,2-b][1,4]oxathiine-2,4′-piperidine]-5,6-dione] | 3.2 | 2.5 | 1.55 | 6.29 | 1.3 | 1.25 | 1.61
COc1ccc(OCC(O)CN2CCC3(CC2)CSC2=C(O3)c3ccccc3C(=O)C2=O)cc1 (stereo not drawn) [Compound 175, 1′-[2-hydroxy-3-(4-methoxyphenoxy)propyl]spiro[naphtho[1,2-b][1,4]oxathiine-2,4′-piperidine]-5,6-dione] | 6.12 | 4.3 | 1.59 | 7.29 | 1.42 | 1.39 | 3.27
O=C1C(=O)c2ccccc2C2=C1SCC1(CCN(CC(O)COc3ccc(Cl)cc3)CC1)O2 (stereo not drawn) [Compound 176, 1′-[3-(4-chlorophenoxy)-2-hydroxypropyl]spiro[naphtho[1,2-b][1,4]oxathiine-2,4′-piperidine]-5,6-dione] | 11 | 4.6 | 2.43 | 5.14 | 2.4 | 3 | 4.76
CC(O)(CN1CCC2(CC1)CSC1=C(O2)c2ccccc2C(=O)C1=O)c1ccccc1 (stereo not drawn) [Compound 177, 1′-(2-hydroxy-2-phenylpropyl)spiro[naphtho[1,2-b][1,4]oxathiine-2,4′-piperidine]-5,6-dione] | 20.5 | 3.3 | 4.55 | 14.9 | 6.22 | 4.18 | 8.99
O=C1C(=O)c2ccccc2C2=C1SCC1(CCN(c3cnccn3)CC1)O2 [Compound 229, 1′-pyrazin-2-ylspiro[naphtho[1,2-b][1,4]oxathiine-2,4′-piperidine]-5,6-dione] | 12.8 | 3.0 | 4.63 | 22.6 | 4.27 | 4.33 | 4.14
O=C1C(=O)c2ccccc2C2=C1SCC1(CCN(C(=O)C3CCCCC3C(=O)O)CC1)O2 (stereo not drawn) [Compound 231, 2-[(5,6-dioxo-5,6-dihydro-1′H-spiro[naphtho[1.2-b][1,4]oxathiine-2,4′-piperidin]-1′-yl)carbonyl]cyclohexanecarboxylic acid] | 12.3 | 1.3 | 12 | 27.9 | 9.27 | 4.84 | 10.6
